Assay results as given in patent US9950005B2, “Compositions comprising biomembrane sealing agent for treatment of neuronal injury, and methods of use” (WARSAW ORTHOPEDIC, INC., priority 2006, dated 2018).

Assays:
Assay type in all cases: in vivo, rat
[1] = test system: carrageenan-induced hind paw acute inflammation; test: Carrageenan hind paw acute inflammation model, mechanical allodynia (up-down method); conditions: Example 7, 24 h after carrageenan
Description: Animals were treated with saline (0.5% final), indomethacin, PEG, magnesium or combined PEG+magnesium solutions. Each animal received 2 injections, the first one 1 hour following carrageenan injection and the second injection 6 hours later. The total dose of PEG and magnesium chloride administered was of 2 and 0.135 g/kg (body weight) respectively. There were 10 animals per group.
Indomethacin (Fluka, cat. 57413, lot 450544/1) was dissolved in 25% hydroxyl-propyl beta cyclodextrin (hpBCD) by gentle heating and stirring. The PEG solution was composed of PEG3350 at 30% in 0.5% saline, the magnesium solution was composed of magnesium chloride at 2% and the combined PEG+magnesium solution was composed of 30% PEG3350+2% Magnesium Chloride (custom made by AAIPharma Developmental Services, Wilmington, N.C.). […]
Twenty-four hours following carrageenan injection into the left paw, the same paw was tested for mechanical allodynia. Baseline and post-treatment values for non-noxious mechanical sensitivity were evaluated using 8 Semmes-Weinstein filaments (Stoelting, Wood Dale, Ill., USA) with varying stiffness (0.4, 0.7, 1.2, 2.0, 3.6, 5.5, 8.5, and 15 g) according to the up-down method (Chaplan et al., 1994). […]
To evaluate the significance of difference between experimental groups, data were analyzed using an unpaired, two-tailed t statistical test with confidence intervals of 95%.

[2] = test system: controlled cortical impact model of brain injury; test: Morris Water Maze test of cognitive function after controlled cortical impact TBI
Excerpt: Male Sprague-Dawley rats (Harlan Sprague-Dawley, Indianapolis, Ind.), weighing 350-450 grams each were given free access to food and water before the experiment. The animals were anesthetized with halothane (1% in 70%/30% […] by mask).
The controlled cortical impact model of brain injury utilized in this study has been described in detail (Scheff and Sullivan, 1999). Animals were anesthetized with isoflorane and placed in a stereotaxic frame in the […] position. A 6 mm craniotomy located approximately midway between bregma and lambda, just above the somatosensory cortex, was made using a Michele trephine. The skull disk was then removed without disturbing the underlying dura mater. The exposed brain was injured using an electronically controlled piston (5 mm diameter, 65 kdynes). The animals in the “sham” group underwent identical surgical procedures, but the surface of the brain was not impacted.
Following surgery, animals were placed in their home cage and dosing was initiated. Animals were treated with saline (Group 1: sham, Group 2: injured), PEG (Group 3: injured), magnesium (Group 4: injured) or a combination of PEG and magnesium solutions (Group 5: injured). The PEG solution was composed of PEG3350 at 30% in 0.5% saline (custom made by AAIPharma Developmental Services, Wilmington, N.C.). […] The magnesium solution was diluted in saline 1:1 before intravenous injection as recommended by the manufacturer. In the cases of combined PEG+Mg combined treatments, animal received the PEG and magnesium components from two individual solutions.
The first two injections were administered 15 minutes following injury. Another round of two injections was given 6 hours later. […] The compounds tested were administered by bolus intravenous injection. There were 10 animals per group.
This behavioral endpoint measure the ability of the rat to learn a new task based on the memorization of spatial cues. […]. […]
To evaluate the significance of difference between experimental groups, data were analyzed using an unpaired, two-tailed t statistical test with confidence intervals of 95%. […]

[3] = test system: spinal cord contusion (T10, pneumatic impactor); test: Spinal cord lesion volume after spinal cord contusion (dural impact); conditions: Example 4, total PEG 2 g/kg, magnesium sulfate 0.12 g/kg i.v., PEG change not statistically significant
Description: Sprague-Dawley female rats (200-225 gm) received a spinal cord contusion using the Precision Scientific Inc pneumatic impactor. Prior to surgery, rats were assigned to different treatment groups based on a randomized block design so that on any given surgery day all treatments would be included. […] The vertebral column was stabilized with angled clamps on the upper thoracic (T8) and lumbar (T11) levels and the impactor with a tip diameter of 2 mm was delivered at approximately 50 kd onto the exposed, intact dura overlying the dorsal spinal cord. The impactor was immediately removed, the wound irrigated with saline, and the muscle and skin openings sutured together. Female animals were used due to the paralysis associated with the injury and ease of voiding the bladder.
At the end of the study, the spinal cords were extracted and fixed in 4% paraformaldehyde. […] Tissue sparing was determined by computed image analysis be from 10 evenly spaced sections through the injured T10 segment. […]

[4] = test system: controlled clip-compression injury at T4; test: Neuropathic pain (mechanical allodynia, Semmes-Weinstein monofilament) after SCI; conditions: Example 6; mechanical allodynia up to 3 weeks post-injury
Description: Animals were prepared as described in Example 3. Animals were tested for the development of neuropathic pain before and up to 3 weeks post-injury. Neuropathic pain occurrence and severity was evaluated by the response of the animal to a stimulus that is normally not painful or allodynia. […] The monofilament was applied 10 times for 3 seconds, with each stimulus being separated by a 5 second interval, and the number of avoidance responses out of a possible 10 were recorded. Avoidance responses were defined as flinching, escape, vocalization, or abnormal aggressive behaviors. The scoring system used to monitor mechanical allodynia has been presented in details in Gris et al., 2004. Mechanical allodynia testing was conducted twice per week and the 2 tests were averaged for each animal and reported as a weekly pain score. To evaluate the significance of difference between experimental groups, data were analyzed using an unpaired, two-tailed t statistical test with confidence intervals of 95%. The Welch's modification was also used to analyze the motor recovery to take in account the significant variability in the control group.

COc1ccc2c(c1)c(CC(=O)O)c(C)n2C(=O)c1ccc(Cl)cc1 [Indomethacin]
mean pain score (mechanical allodynia) ([1]; carrageenan-saline 3.4+/−0.5, sham 12.7+/−1.1, higher is better): 5.6+/−0.9

O=S(=O)([O-])[O-].[Mg+2] [Mg, magnesium sulfate]
effect on cognitive functions following TBI ([2]; Example 1, i.v. 15 min and 6 h post-injury, total PEG 1.4 g/kg, magnesium sulfate 0.230 mmol/kg, Morris Water Maze day 9-14): no effect
reduction of the lesion volume relative to control group (SCI-Saline) [3]: 33%
effect on the development of neuropathic pain after SCI [4]: no significant effect

[Cl-].[Cl-].[Mg+2] [magnesium chloride]
effect on cognitive recovery after TBI ([2]; Example 2, total 1.4 g/kg PEG, 0.230 mmol/kg magnesium chloride, 2 injections 15 min and 6 h post-TBI): no significant effect
effect on the loss of cognitive functions following brain injury ([2]; summary statement in description): no effect
effect on the pain score relative to animals treated with saline ([1]; total PEG 2 g/kg, magnesium chloride 0.135 g/kg): no significant effect
